The values that follow come from US20030194784A1, “DNA encoding methymycin and pikromycin” (priority 2001, published 2003).

Data set [1] has as its target A. eutrophus PHA synthase (Cupriavidus necator, UniProt P23608). The following applies: read-out: apparent Km value (substrate concentration at half-optimal velocity); enzyme concentration constant at 0.95 mg/ml; 40 or 200 μl assay volumes; estimated from FIG. 10.
The subject of the next data set is Streptococcus pyogenes. Put plainly: Antibiotic activity by filter paper disc on agar plates. It is filed as cell-based. The following applies: for inhibition zone around disc (antibiotic activity against Streptococcus pyogenes): 20 μL of 1.6 mM sample in MeOH on sterilized filter paper disc, Mueller-Hinton agar plates, overnight at 37° C.; for activity against Streptococcus pyogenes: purified compounds, S. pyogenes grown on Mueller-Hinton agar plates. Here is the method:
The antibiotic activity of a compound of formula (13) and (14) against Streptococcus pyogenes was examined by separately applying 20 μL of each sample (1.6 mM in MeOH) to sterilized filter paper discs which were placed onto the surface of S. pyogenes grown on Mueller-Hinton agar plates (Mangahas, 1996).

Data set [2] concerns the molecule itself. In words: size exclusion chromatography, native MW (about 100-160 kDa and about 50-80 kDa forms).
The nature of data set [3]: Storage stability of purified PHA synthase (activity remaining). In kind it is physicochemical. From the text:
PHA synthase purified from insect cells appears to be relatively stable.

In the case of 3-hydroxybutyrate CoA [HBCoA], in data set [1], the Km is 2500 µM.

Consider `CCC1OC(=O)C(C)C(OC2OC(C)CC(N(C)C)C2O[C@@H]2O[C@H](CO)[C@@H](O)[C@H](O)[C@H]2O)C(C)CC(C)C(=O)C=CC1(C)O` (stereo partly drawn) [compound of formula (13), C-2′β-glucosylated methymycin], for which the “inhibition zone around disc (antibiotic activity against Streptococcus pyogenes)” value (“inhibition zone around disc” below) with Streptococcus pyogenes is recorded as “no such clearings were discernible”.

Take `CC[C@H]1OC(=O)[C@H](C)[C@@H](O[C@@H]2O[C@H](C)C[C@H](N(C)C)[C@H]2O)[C@@H](C)C[C@@H](C)C(=O)/C=C/[C@]1(C)O` [compound of formula (1), methymycin]: in the data set with Streptococcus pyogenes, the “inhibition zone around disc” value is “clearly visible inhibition zones” and the “activity against Streptococcus pyogenes” value was “clearly visible inhibition zones”.

Consider `C[C@@H]1C[C@H](N(C)C)[C@@H](O)[C@H](O[C@H]2[C@@H](C)C[C@@H](C)C(=O)/C=C/[C@@H](C)[C@@H]([C@@H](C)O)OC(=O)[C@@H]2C)O1` [compound of formula (2), neomethymycin], for which, in the data set with Streptococcus pyogenes, the “inhibition zone around disc” value is “clearly visible inhibition zones” and the “activity against Streptococcus pyogenes” value was “clearly visible inhibition zones”.

B1: A. eutrophus PHA synthase (phbC gene product), produced in insect cells with a baculovirus vector (enzyme)
chain: AAASTQEGKSQPFKVTPGPFDPATWLEWSRQWQGTEGNGHAAASGIPGLDALAGVKIAPAQLGDIQQRYMKDFSALWQAMAEGKAEATGPLHDRRFAGDAWRTNLPYRFAAAFYLLNARALTELADAVEADAKTRQRIRFAISQWVDAMSPANFLATNPEAQRLLIESGGESLRAGVRNMMEDLTRGKISQTDESAFEVGRNVAVTEGAVVFENEYFQLLQYKPLTDKVHARPLLMVPPCINKYYILDLQPESSLVRHVVEQGHTVFLVSWRNPDASMAGSTWDDYIEHAAIRAIEVARDISGQDKINVLGFCVGGTIVSTALAVLAARGEHPAASVTLLTTLLDFADTGILDVFVDEGHVQLREATLGGGAGAPCALLRGLELANTFSFLRPNDLVWNYVVDNYLKGNTPVPFDLLFWNGDATNLPGPWYCWYLRHTYLQNELKVPGKLTVCGVPVDLASIDVPTYIYGSREDHIVPWTAAYASTALLANKLRFVLGASGHIAGVINPPAKNKRSHWTNDALPESPQQWLAGAIEHHGSWWPDWTAWLAGQAGAKRAAPANYGNARYRAIEPAPGRYVKAKA
notes: The 64 kDa band; On the blots it was denatured (SDS-PAGE); The N-terminus is heterogeneous (starts at A7 or S10); also called PHB synthase; intact PHB synthase (band a)
As for B1, in data set [2], the binding result is on record as “binds”. Further, the “synthase activity remained after storage” value in data set [3] (after 7 weeks stored at −20° C. in the presence of 50% glycerol) is listed as “approximately 75%”; in data set [3] (after 7 weeks stored in liquid N2), “approximately 50%”.
